Ten compounds from ChEMBL document CHEMBL1201862, “PubChem BioAssay data set” (2004) can be followed below.

Test systems include SK-OV-3; SNB-19; HCT-15; NCI-H460; K562; HCT-116; SN12C; HOP-92; RXF 393; Malme-3M; RPMI-8226; HOP-62; OVCAR-5; OVCAR-3; SK-MEL-2; LOX IMVI; M14; MOLT-4; SNB-75; U-251.
Holding throughout (test): growth of human tumour cells (NCI), 48 h

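Compound exposure: 48 hours, 5 concentrations, 96-well plates. At the GI50, growth is halved.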 Activity calls are given as the source filed them. No stated cut-off is given here; in the data, active = GI50 up to about 1.1 µM and inactive = higher. A value given as a limit tells only on which side of the number the result lay.

In the case of `CCOC(=O)C(=O)/C=C(\C)Nc1c(NC2OCC(OC(C)=O)C(OC(C)=O)C2OC(C)=O)nc(SC)[nH]c1=O` (centres undefined), the GI50 in the assay on SK-OV-3 is > 100 µM (inactive); in the assay on SNB-19 it was > 100 µM (inactive); in the assay with HCT-15, greater than 100 µM; in the assay on NCI-H460 it was > 100 µM (inactive); in the assay with K562, > 100 µM (inactive); in the assay on HCT-116, > 100 µM (inactive). The GI50 in the assay on SN12C, with HOP-92, in the assay on RXF 393, in the assay with Malme-3M, in the assay with RPMI-8226 and with HOP-62 was > 100 µM (inactive) each time. Also, the GI50 in the assay on OVCAR-5, in the assay with OVCAR-3, in the assay with SK-MEL-2, with LOX IMVI, with M14 and in the assay with MOLT-4 was > 100 µM (inactive) throughout. The GI50 in the assay with SNB-75 and with U-251 was > 100 µM (inactive) in each case.
For the compound `Cc1cc2c(c(C#N)c1C)NC(=O)C(CC(=O)O)C2=O` (centres undefined), the GI50 with SK-OV-3 is > 100 µM (inactive); in the assay on HCT-15, greater than 100 µM; in the assay with NCI-H460, > 100 µM (inactive); in the assay with K562 it was > 100 µM (inactive); in the assay with HCT-116, > 100 µM (inactive); in the assay with SN12C, > 100 µM (inactive). The GI50 in the assay on HOP-92, with RXF 393, in the assay on Malme-3M, in the assay with RPMI-8226, with HOP-62 and in the assay with OVCAR-5 was > 100 µM (inactive) in each case. In addition, the GI50 in the assay on OVCAR-3, in the assay on SK-MEL-2, with LOX IMVI, in the assay with M14, in the assay with MOLT-4 and in the assay on SNB-75 was > 100 µM (inactive) in each case. Besides, in the assay on U-251, the GI50 was > 100 µM (inactive).
Regarding `Nc1cc2c3c(cccc3c1)C(=O)N(c1ccc(OCCN3CCCC3)cc1)C2=O`, the GI50 is 1.61 µM (inactive) in the assay on SK-OV-3; 17.2 µM (inactive) in the assay with SNB-19; 13.8 µM in the assay with HCT-15; 11.5 µM (inactive) in the assay on NCI-H460; 14.5 µM (inactive) in the assay with K562; 14.7 µM (inactive) in the assay with HCT-116. The GI50 is 21.8 µM (inactive) in the assay on SN12C; 17.8 µM (inactive) in the assay with HOP-92; 14.2 µM (inactive) in the assay with RXF 393; 17.7 µM (inactive) with Malme-3M; 22.4 µM (inactive) with RPMI-8226; 15.9 µM (inactive) in the assay on HOP-62. For the same compound, the GI50 with OVCAR-5 is 21.1 µM (inactive); in the assay on OVCAR-3, 16 µM (inactive); in the assay on SK-MEL-2, 19.4 µM (inactive); with LOX IMVI, 17 µM (inactive); with M14, 20.7 µM (inactive); in the assay on MOLT-4 it was 18.5 µM (inactive). Besides, the GI50 in the assay on SNB-75 is 3.94 µM (inactive); with U-251, 25.6 µM (inactive).
Consider `CC(=O)Nc1ccc2cc(C#N)c(=O)[nH]c2n1`, for which the GI50 in the assay on SK-OV-3 is > 100 µM (inactive); in the assay with SNB-19, > 100 µM (inactive); in the assay with HCT-15 it was greater than 100 µM; with NCI-H460, > 100 µM (inactive); in the assay on K562 it was > 100 µM (inactive); in the assay on HCT-116, > 100 µM (inactive). Besides, the GI50 with SN12C, with HOP-92, in the assay with RXF 393, in the assay on Malme-3M, in the assay on RPMI-8226 and in the assay with HOP-62 was > 100 µM (inactive) throughout. Further, the GI50 in the assay on OVCAR-5, in the assay with OVCAR-3, with SK-MEL-2, in the assay with LOX IMVI, in the assay on M14 and with MOLT-4 was > 100 µM (inactive) each time. For the same compound, the GI50 with SNB-75 was > 100 µM (inactive); in the assay with U-251 it was 81.3 µM (inactive).
As for `Nc1ccc(C(=O)N/C(=C\c2cccc([N+](=O)[O-])c2)c2nc3ccccc3[nH]2)cc1`, the GI50 was 29.2 µM (inactive) in the assay with SK-OV-3; 40.6 µM (inactive) in the assay on SNB-19; 76.6 µM in the assay on HCT-15; 74.8 µM (inactive) in the assay with NCI-H460; > 100 µM (inactive) in the assay on K562; 41.4 µM (inactive) with HCT-116. Also, the GI50 in the assay on SN12C was 83.9 µM (inactive); with HOP-92, 23.6 µM (inactive); in the assay with RXF 393, 24.9 µM (inactive); in the assay with Malme-3M, 57.3 µM (inactive); in the assay on RPMI-8226 it was > 100 µM (inactive); in the assay with HOP-62 it was 21.8 µM (inactive). Moreover, the GI50 in the assay on OVCAR-5 was > 100 µM (inactive); in the assay with OVCAR-3 it was 50.2 µM (inactive); in the assay on SK-MEL-2 it was 37.2 µM (inactive); in the assay on LOX IMVI it was > 100 µM (inactive); with M14, > 100 µM (inactive); in the assay with MOLT-4, > 100 µM (inactive). Moreover, the GI50 is 23.3 µM (inactive) in the assay with SNB-75 and 41.4 µM (inactive) in the assay with U-251.
Turning to `c1ccc(CSc2ccccc2CN2CCN(Cc3ccccc3SCc3ccccc3)CCN(Cc3ccccc3SCc3ccccc3)CC2)cc1`, the GI50 in the assay with SK-OV-3 is 2.21 µM (inactive); in the assay on SNB-19, 1.92 µM (inactive); in the assay on HCT-15, 1.61 µM; in the assay with NCI-H460 it was 1.19 µM (inactive); in the assay on K562, 0.989 µM (active); in the assay with HCT-116 it was 0.646 µM (active). For the same compound, the GI50 in the assay on SN12C was 1.72 µM (inactive); in the assay with HOP-92, 0.359 µM (active); in the assay on RXF 393, 1.77 µM (inactive); in the assay on Malme-3M, 1.71 µM (inactive); in the assay on RPMI-8226, 0.384 µM (active); in the assay with HOP-62 it was 1.93 µM (inactive). For the same compound, the GI50 is 1.64 µM (inactive) with OVCAR-5; 0.466 µM (active) in the assay with OVCAR-3; 1.45 µM (inactive) in the assay with SK-MEL-2; 1.33 µM (inactive) in the assay on LOX IMVI; 1.55 µM (inactive) in the assay on M14; 1.63 µM (inactive) with MOLT-4. Moreover, the figures for the GI50 with SNB-75 and in the assay on U-251 were 1.6 µM (inactive) and 0.869 µM (active), respectively.
As to `O=C1NC(Nc2cccc(Cl)c2)=N/C1=C\c1ccc(Cl)c(Cl)c1`, the GI50 is 12.4 µM (inactive) with SK-OV-3; 7.74 µM (inactive) in the assay on SNB-19; 5.28 µM in the assay with HCT-15; 2.24 µM (inactive) with NCI-H460; 3.33 µM (inactive) in the assay on K562; 3.94 µM (inactive) in the assay on HCT-116. Moreover, the GI50 in the assay with SN12C is 2.54 µM (inactive); with HOP-92, 3.48 µM (inactive); with RXF 393 it was 3.21 µM (inactive); in the assay with Malme-3M, 14.1 µM (inactive); in the assay on RPMI-8226, 3.99 µM (inactive); in the assay on HOP-62, 8.79 µM (inactive). Further, the GI50 in the assay on OVCAR-5 was 7.91 µM (inactive); with OVCAR-3 it was 5.14 µM (inactive); in the assay on SK-MEL-2 it was 2.44 µM (inactive); in the assay with LOX IMVI it was 2.14 µM (inactive); in the assay with M14 it was 4.42 µM (inactive); in the assay on MOLT-4, 3.37 µM (inactive). Moreover, the GI50 in the assay on SNB-75 is 13.3 µM (inactive); in the assay on U-251, 4.02 µM (inactive).
`Cc1cc([C@H](C#N)c2nc3ccccc3s2)nc(Cl)n1`: the GI50 in the assay on SK-OV-3 is 5.66 µM (inactive); in the assay with SNB-19 it was 6.7 µM (inactive); with HCT-15 it was 3.66 µM; with NCI-H460 it was 3.45 µM (inactive); with K562, 2.75 µM (inactive); with HCT-116, 3.22 µM (inactive). The GI50 with SN12C was 3.42 µM (inactive); in the assay on HOP-92, 2.32 µM (inactive); with RXF 393 it was 7.4 µM (inactive); in the assay on Malme-3M, 3.81 µM (inactive); with RPMI-8226, 2.3 µM (inactive); with HOP-62, 4.66 µM (inactive). For the same compound, the GI50 is 16.3 µM (inactive) with OVCAR-5; 4.84 µM (inactive) in the assay on OVCAR-3; 4.72 µM (inactive) in the assay with SK-MEL-2; 2.89 µM (inactive) in the assay on LOX IMVI; 5.57 µM (inactive) in the assay with M14; 5.5 µM (inactive) with MOLT-4. The results for the GI50 in the assay with SNB-75 and in the assay with U-251 were 2.21 µM (inactive) and 2.86 µM (inactive), respectively.
With `CN(C)CC1CCCC(CN2CCCCC2)C1=O` (centres undefined), the GI50 with SK-OV-3 is > 62.7 µM (inactive); in the assay on SNB-19 it was > 88.3 µM (inactive); in the assay with HCT-15, 8.83 µM; in the assay with NCI-H460 it was > 55.8 µM (inactive); in the assay with K562, 0.172 µM (active); in the assay with HCT-116, 3.01 µM (inactive). Also, the GI50 in the assay with SN12C was 8.32 µM (inactive); in the assay on HOP-92, 1.96 µM (inactive); in the assay with RXF 393, 12.8 µM (inactive); in the assay on Malme-3M, 3.33 µM (inactive); in the assay with RPMI-8226, 0.158 µM (active); in the assay on HOP-62, > 100 µM (inactive). In addition, the GI50 in the assay with OVCAR-5 was 31.4 µM (inactive); in the assay with OVCAR-3, 8.63 µM (inactive); with SK-MEL-2, 15.7 µM (inactive); in the assay on LOX IMVI it was 8.26 µM (inactive); with M14 it was 7.73 µM (inactive); in the assay with MOLT-4 it was 0.604 µM (active). Further, the GI50 in the assay with SNB-75 was 19.4 µM (inactive); in the assay with U-251 it was > 54.6 µM (inactive).
As to `CN(C)c1ccc(C(=C2C=CC(=[N+](C)C)C=C2)c2c(O)c(S(=O)(=O)[O-])cc3cc(S(=O)(=O)O)ccc23)cc1`, the GI50 in the assay on SK-OV-3 is > 100 µM (inactive); in the assay on SNB-19, > 100 µM (inactive); in the assay on HCT-15, greater than 100 µM; in the assay on NCI-H460 it was > 100 µM (inactive); in the assay on K562 it was > 100 µM (inactive); with HCT-116, > 100 µM (inactive). Further, the GI50 in the assay on SN12C, with HOP-92, in the assay with RXF 393, with Malme-3M, in the assay with RPMI-8226 and in the assay on HOP-62 was > 100 µM (inactive) throughout. The GI50 in the assay on OVCAR-5, with OVCAR-3, with SK-MEL-2, in the assay on LOX IMVI, in the assay on M14 and in the assay on MOLT-4 was > 100 µM (inactive) each time. In addition, the GI50 in the assay on SNB-75 and with U-251 was > 100 µM (inactive) in each case.
